Experimental data reported in ChEMBL document CHEMBL1127065, “Nucleoside conjugates. 13. Synthesis and antitumor activity of 1-beta-D-arabinofuranosylcytosine conjugates of thioether lipids with improved water solubility” (J Med Chem, 1993).
Where “and” joins values, the source holds several entries; their conditions need not be identical. Identical values can stand only once.

How the values were obtained:
[1] = Water solubility was determined by UV absorption at 273 nm; assay type: ADME
Mus musculus [2] = experiment: Percent increase in life span at 400 mg/kg (437 umol) per day; assay type: functional
Mus musculus [3] = experiment: Median T/C calculated based on survivors at 400 mg/kg (437 umol) per day against Ip-implanted L1210 lymphoid leukemia mice; assay type: functional
Mus musculus [4] = experiment: Number of survivors in mice bearing ip-implanted L1210 lymphoid leukemia after 45 day; assay type: functional
Mus musculus [5] = experiment: Percent increase in life span at 150 mg/kg (164 umol) per day; assay type: functional
Mus musculus [6] = experiment: Median T/C calculated based on survivors at 150 mg/kg (164 umol) per day; assay type: functional
Mus musculus [7] = experiment: Percent increase in life span at 150 mg/kg (150 umol) per day; assay type: functional
Mus musculus [8] = experiment: Percent increase in life span at 400 mg/kg (400 umol) per day; assay type: functional
Mus musculus [9] = experiment: Median T/C calculated based on survivors at 150 mg/kg (150 umol) per day against Ip-implanted L1210 lymphoid leukemia mice; assay type: functional
Mus musculus [10] = experiment: Median T/C calculated based on survivors at 400 mg/kg (400 umol) per day against Ip-implanted L1210 lymphoid leukemia mice; assay type: functional
Mus musculus [11] = experiment: Percent increase in life span at 150 mg/kg (154 umol) per day; assay type: functional
Mus musculus [12] = experiment: Percent increase in life span at 300 mg/kg (309 umol) per day; assay type: functional
Mus musculus [13] = experiment: Median T/C calculated based on survivors at 150 mg/kg (154 umol) per day against Ip-implanted L1210 lymphoid leukemia mice; assay type: functional
Mus musculus [14] = experiment: Median T/C calculated based on survivors at 300 mg/kg (309 umol) per day against Ip-implanted L1210 lymphoid leukemia mice; assay type: functional
Mus musculus [15] = experiment: Median T/C calculated based on survivors at 300 mg/kg (318 umol) per day against Ip-implanted L1210 lymphoid leukemia mice; assay type: functional
Mus musculus [16] = experiment: Percent increase in life span at 300 mg/kg (318 umol) per day; assay type: functional
Mus musculus [17] = experiment: Percent increase in life span at 400 mg/kg (389 umol) per day against Ip-implanted L1210 lymphoid leukemia mice; assay type: functional
Mus musculus [18] = experiment: Median T/C calculated based on survivors at 400 mg/kg (389 umol) per day; assay type: functional
Mus musculus [19] = experiment: Change in weight in mice bearing ip-implanted L1210 lymphoid leukemia on day 8 at 300 mg/kg or 309 umol/kg per day; assay type: functional
Mus musculus [20] = experiment: Percent increase in life span at 400 mg/kg (411 umol) per day; assay type: functional
Mus musculus [21] = experiment: Median T/C calculated based on survivors at 400 mg/kg (411 umol) per day against Ip-implanted L1210 lymphoid leukemia mice; assay type: functional
Mus musculus [22] = experiment: Percent increase in life span at 200 mg/kg (218 umol) per day; assay type: functional
Mus musculus [23] = experiment: Percent increase in life span at 300 mg/kg (328 umol) per day; assay type: functional
Mus musculus [24] = experiment: Median T/C calculated based on survivors at 200 mg/kg (218 umol) per day; assay type: functional
Mus musculus [25] = experiment: Median T/C calculated based on survivors at 300 mg/kg (328 umol) per day against Ip-implanted L1210 lymphoid leukemia mice; assay type: functional
Mus musculus [26] = experiment: Percent increase in life span at 300 mg/kg (300 umol) per day; assay type: functional
Mus musculus [27] = experiment: Median T/C calculated based on survivors at 300 mg/kg (300 umol) per day against Ip-implanted L1210 lymphoid leukemia mice; assay type: functional
Mus musculus [28] = experiment: Percent increase in life span at 100 mg/kg (411 umol) per day; assay type: functional
Mus musculus [29] = experiment: Percent increase in life span at 200 mg/kg (822 umol) per day; assay type: functional
Mus musculus [30] = experiment: Percent increase in life span at 71 mg/kg (292 umol) per day; assay type: functional
Mus musculus [31] = experiment: Change in weight in mice bearing ip-implanted L1210 lymphoid leukemia on day 8 at 100 mg/kg or 411 umol/kg per day; assay type: functional
Mus musculus [32] = experiment: Change in weight in mice bearing ip-implanted L1210 lymphoid leukemia on day 8 at 200 mg/kg or 822 umol/kg per day; assay type: functional
Mus musculus [33] = experiment: Change in weight in mice bearing ip-implanted L1210 lymphoid leukemia on day 8 at 71 mg/kg or 292 umol/kg per day; assay type: functional
Mus musculus [34] = experiment: Median T/C calculated based on survivors at 100 mg/kg (411 umol) per day against Ip-implanted L1210 lymphoid leukemia mice; assay type: functional
Mus musculus [35] = experiment: Median T/C calculated based on survivors at 200 mg/kg (822 umol) per day against Ip-implanted L1210 lymphoid leukemia mice; assay type: functional
Mus musculus [36] = experiment: Median T/C calculated based on survivors at 71 mg/kg (292 umol) per day against Ip-implanted L1210 lymphoid leukemia mice; assay type: functional
Mus musculus [37] = experiment: Percent increase in life span at 300 mg/kg (292 umol) per day; assay type: functional
Mus musculus [38] = experiment: Number of survivors in mice bearing ip-implanted L1210 lymphoid leukemia after 45 day against Ip-implanted L1210 lymphoid leukemia mice; assay type: functional
Mus musculus [39] = experiment: Change in weight in mice bearing ip-implanted L1210 lymphoid leukemia on day 8 at 300 mg/kg or 292 umol/kg per day; assay type: functional
Mus musculus [40] = experiment: Median T/C calculated based on survivors at 150 mg/kg (146 umol) per day against Ip-implanted L1210 lymphoid leukemia mice; assay type: functional
Mus musculus [41] = experiment: Median T/C calculated based on survivors at 300 mg/kg (292 umol) per day against Ip-implanted L1210 lymphoid leukemia mice; assay type: functional

CCCCCCCCCCCCCCSCC(COP(=O)([O-])OP(=O)([O-])OC[C@H]1OC(n2ccc(N)nc2=O)[C@@H](O)[C@@H]1O)OC(=O)CCCCCCCCCCC.[Na+].[Na+] (some centres not stated)
solubility [1]: > 50 mM | ILS at 400 mg/kg (Mus musculus [2]): 129% | Median T/C (Mus musculus [3]): 16 | Survivors (Mus musculus [4]): 0

CCCCCCCCCCCCCCCC(=O)OC(COP(=O)([O-])OP(=O)([O-])OC[C@H]1OC(n2ccc(N)nc2=O)[C@@H](O)[C@@H]1O)CSCCCCCCCCCC.[Na+].[Na+] (some centres not stated)
solubility [1]: > 58 mM | ILS at 150 mg/kg (Mus musculus [5]): 200% | ILS at 400 mg/kg (Mus musculus [2]): 114% | Median T/C (Mus musculus [6]): 21 | Median T/C (Mus musculus [3]): 15 | Survivors (Mus musculus [4]): 0

CCCCCCCCCCCCCCCCCCSCC(COP(=O)([O-])OP(=O)([O-])OC[C@H]1OC(n2ccc(N)nc2=O)[C@@H](O)[C@@H]1O)OC(=O)CCCCCCCCCCCCC.[Na+].[Na+] (some centres not stated)
solubility [1]: > 62 mM | ILS at 150 mg/kg (Mus musculus [7]): > 464% | ILS at 400 mg/kg (Mus musculus [8]): 213% | Median T/C (Mus musculus [9]): 39.5 | Median T/C (Mus musculus [10]): 25 | Survivors (Mus musculus [4]): 1 and 3

CCCCCCCCCCCCCCCCCCSCC(COP(=O)([O-])OP(=O)([O-])OC[C@H]1OC(n2ccc(N)nc2=O)[C@@H](O)[C@@H]1O)OC(=O)CCCCCCCCCCC.[Na+].[Na+] (some centres not stated)
solubility [1]: > 54 mM | ILS at 150 mg/kg (Mus musculus [11]): 371% | ILS at 300 mg/kg (Mus musculus [12]): 213% | Median T/C (Mus musculus [13]): 33 | Median T/C (Mus musculus [14]): 25 | Survivors (Mus musculus [4]): 1 and 2

CCCCCCCCCCCCCCSCC(COP(=O)([O-])OP(=O)([O-])OC[C@H]1OC(n2ccc(N)nc2=O)[C@@H](O)[C@@H]1O)OC(=O)CCCCCCCCCCCCC.[Na+].[Na+] (some centres not stated)
solubility [1]: > 60 mM | Median T/C (Mus musculus [15]): 24 | ILS at 300 mg/kg (Mus musculus [16]): 243% | Survivors (Mus musculus [4]): 2

CCCCCCCCCCCCCCCCCC(=O)OC(COP(=O)([O-])OP(=O)([O-])OC[C@H]1OC(n2ccc(N)nc2=O)[C@@H](O)[C@@H]1O)CSCCCCCCCCCCCCCCCC.[Na+].[Na+] (some centres not stated)
solubility [1]: 0.2 mM | ILS at 400 mg/kg (Mus musculus [17]): > 521% | Median T/C (Mus musculus [18]): >43.5 | Survivors (Mus musculus [4]): 3

CCCCCCCCCCCCCCCCSCC(COP(=O)([O-])OP(=O)([O-])OC[C@H]1OC(n2ccc(N)nc2=O)[C@@H](O)[C@@H]1O)OC(=O)CCCCCCCCCCC.[Na+].[Na+] (some centres not stated)
solubility [1]: > 64 mM | Median T/C (Mus musculus [15]): 19.5 | ILS at 300 mg/kg (Mus musculus [16]): 178% | Survivors (Mus musculus [4]): 2

CCCCCCCCCCCCCCCCSCC(COP(=O)([O-])OP(=O)([O-])OC[C@H]1OC(n2ccc(N)nc2=O)[C@@H](O)[C@@H]1O)OC(=O)CCCCCCCCCCCCC.[Na+].[Na+] (some centres not stated)
solubility [1]: > 53 mM | ILS at 300 mg/kg (Mus musculus [12]): 386% | Weight change (Mus musculus [19]): -1.8 g mouse-1 | Median T/C (Mus musculus [14]): 34 | Survivors (Mus musculus [4]): 2

CCCCCCCCCCCCCCCC(=O)OC(COP(=O)([O-])OP(=O)([O-])OC[C@H]1OC(n2ccc(N)nc2=O)[C@@H](O)[C@@H]1O)CSCCCCCCCCCCCCCC.[Na+].[Na+] (some centres not stated)
solubility [1]: 1.5 mM | ILS at 150 mg/kg (Mus musculus [11]): 321% | ILS (Mus musculus [20]): >421% and 393% | Weight change (Mus musculus [19]): 0.5 g mouse-1 | Median T/C (Mus musculus [13]): 29.5 | Median T/C (Mus musculus [21]): >36.5 and 34.5 | Survivors (Mus musculus [4]): 3 and 1 and 2

CCCCCCCCCCCCCC(=O)OC(COP(=O)([O-])OP(=O)([O-])OC[C@H]1OC(n2ccc(N)nc2=O)[C@@H](O)[C@@H]1O)CSCCCCCCCCCCCC.[Na+].[Na+] (some centres not stated)
solubility [1]: > 68 mM | ILS at 200 mg/kg (Mus musculus [22]): 463% | ILS at 300 mg/kg (Mus musculus [23]): 81% | Median T/C (Mus musculus [24]): >45 | Median T/C (Mus musculus [25]): 14.5

CCCCCCCCCCCCCCCCSCC(COP(=O)([O-])OP(=O)([O-])OC[C@H]1OC(n2ccc(N)nc2=O)[C@@H](O)[C@@H]1O)OC(=O)CCCCCCCCCCCCCCC.[Na+].[Na+] (some centres not stated)
solubility [1]: 0.2 mM | ILS at 300 mg/kg (Mus musculus [26]): > 436% | Median T/C (Mus musculus [27]): 37.5 | Survivors (Mus musculus [4]): 2

Nc1ccn([C@@H]2O[C@H](CO)[C@@H](O)[C@@H]2O)c(=O)n1 [CYTARABINE]
ILS at 100 mg/kg (Mus musculus [28]): 129% | ILS at 200 mg/kg (Mus musculus [29]): 100% | ILS at 71 mg/kg (Mus musculus [30]): 23% | Weight change (Mus musculus [31]): -3.1 g mouse-1 | Weight change (Mus musculus [32]): -6.1 g mouse-1 | Weight change (Mus musculus [33]): -3.8 g mouse-1 | Median T/C (Mus musculus [34]): 16 | Median T/C (Mus musculus [35]): 14 | Median T/C (Mus musculus [36]): 8 | Survivors (Mus musculus [4]): 0

CCCCCCCCCCCCCCCCCCSCC(COP(=O)([O-])OP(=O)([O-])OC[C@H]1OC(n2ccc(N)nc2=O)[C@@H](O)[C@@H]1O)OC(=O)CCCCCCCCCCCCCCC.[Na+].[Na+] (some centres not stated) [CYTOROS]
solubility [1]: 0.2 mM | ILS (Mus musculus [37]): >543% and >293% | Survivors (Mus musculus [38]): 4 | Weight change (Mus musculus [39]): -2.4 g mouse-1 | Median T/C (Mus musculus [40]): 27.5 | Median T/C (Mus musculus [41]): >45 | Survivors (Mus musculus [4]): 1
